Data reported in ChEMBL document CHEMBL5030560, “Berberine Molecular Recognition of the Parallel MYC G-Quadruplex in Solution” (J Med Chem, 2021).
Activity calls are given as the source filed them. The calls are words filed in the database; no cut-off is given here.

Assays:
Type in all cases: nucleic-acid assay
Quadruplex DNA [1] = experiment: Binding affinity to human MycG4 DNA (unknown origin) assessed as compound-DNA complex at 2:1 ratio by mass spectroscopy
Quadruplex DNA [2] = experiment: Binding affinity to human MycG4 DNA (unknown origin) assessed as apparent dissociation constant by fluorescence based binding assay; conditions: read-out: Kd(app)
Quadruplex DNA [3] = experiment: Binding affinity to human MycG4 DNA (unknown origin) assessed as compound-DNA complex at 3:1 ratio by 1D NMR analysis

Activity (Quadruplex DNA [1]): Active | Kd (Quadruplex DNA [2]): 9.9 µM | Activity (Quadruplex DNA [3]): Active
Structure (SMILES): COc1ccc2cc3[n+](cc2c1OC)CCc1cc2c(cc1-3)OCO2 [BERBERINE]
